Results: patent publication US9320722B2, “Regulators of aldehyde dehydrogenase ALDH3A1 and related therapeutic methods” (Indiana University Research and Technology Corporation, priority 2013, dated 2016)

Experiments:
[1] = tested on: SF767 cells; experiment: MTT assay for cell proliferation / mafosfamide sensitivity, SF767; assay type: cell-based; conditions: 10 μM inhibitor + mafosfamide
[2] = tested on: CCD13Lu cells; experiment: MTT assay for cell proliferation / mafosfamide sensitivity, CCD13Lu; assay type: cell-based; conditions: 10 μM compound + mafosfamide, FIG. 13c

## Cc1ccc(S(=O)(=O)n2c(C)nc3ccccc32)cc1 [Compound A10]
[1]
  chemosensitivity to mafosfamide (in words), SF767: significantly increased chemosensitivity
[2]
  effect with mafosfamide (in words), CCD13Lu: decreased cell proliferation
